Measured values published in patent US7741506B2, “Probe for measuring phytase activity” (Berry & Associates, Inc., priority 2005, dated 2010).

What was measured:
[1] = system: wheat 6-phytase; assay: 6-phytase assay with HPLC analysis; type: biochemical; settings: 0.27 U enzyme, 1.2 mM substrate, sodium acetate buffer 0.2M, pH 5.2, 50° C.
Procedure: (§1) Referring now to FIGS. 2 through 5, the aforesaid exemplary probe according to the instant invention (compound 2 of FIG. 1) was employed in assays of 3-phytase and 6-phytase activity. The 3-phytase assay consisted of a solution combining A. ficuum 3-phytase (0.27 U) and the penta-ammonium salt of compound 2 (1.2 mM in glycine-HCl buffer 0.2M, pH 2.6, 3 mL). The 3-phytase assay was carried out at 37° C. The 6-phytase assay consisted of a solution combining wheat 6-phytase (0.27 U) and compound 2 (1.2 mM in sodium acetate buffer, 0.2M, pH 5.2, 3 mL). The 6-phytase assay was carried out at 50° C.
(§2) Control assays were similarly prepared but lacked the phytase enzyme. Assays were carried out in tinted vials, capped with septa and stirred continuously. Aliquot samples (30 μL) were taken and diluted with methanol-water (58:42, 970 μL) for HPLC analysis over the 24-hour time course of the assay.
(§3) Mobile phase (pH 4.0) was prepared by mixing methanol (580 mL), water (420 mL), tetrabutylammonium hydroxide (8 mL), 5N aqueous sulfuric acid (0.5 mL), and 6.4 mM aqueous phytic acid (0.2 mL). HPLC analysis was performed on an analytical HPLC system using a reversed phase column (Hamilton PRP-1, 5 μm, 150×4.6 mm). Compounds were quantified by the external standards method.

[2] = system: A. ficuum 3-phytase; assay: 3-phytase assay with HPLC analysis; type: biochemical
Procedure: as §1, §2, §3

- substrate for 6-phytase (sequential dephosphorylation, HPLC) [1]: serves equally well as a substrate
- conversion of compound 2 to compound 7 (complete dephosphorylation) in the presence of 3-phytase ([2]; after 24 hours of incubation, 0.27 U enzyme, 1.2 mM substrate, glycine-HCl buffer 0.2M, pH 2.6, 37° C., HPLC): completely converted
- conversion in the enzyme free control ([2]; control lacking the phytase enzyme, 24 hours, glycine-HCl buffer pH 2.6, 37° C., HPLC): no conversion
- amide bond cleavage separating the UV chromophore from the phytic acid core (benzoic acid by HPLC) ([2]; in the assay and in the control): no benzoic acid could be detected
Structure (SMILES): O=C(NCCCCCCOC1[C@@H](OP(=O)(O)O)[C@H](OP(=O)(O)O)C(OP(=O)(O)O)[C@H](OP(=O)(O)O)[C@H]1OP(=O)(O)O)c1ccccc1 (stereo partly drawn) [compound 2, 5-O-[6-(benzoylamino)hexyl]-D-myo-inositol-1,2,3,4,6-pentakisphosphate]
- rate limiting step of the production of compound 7 from compound 2 ([2]; 3-phytase, accumulation of the triphosphate, no significant diphosphate peak): conversion of triphosphate to diphosphate
